These are literature values, as cited in patent US20260207540A1 (priority 2020, published 2026).

The conditions of data set [1]: 1 microgram/kg IV, canines.
The conditions of data set [2]: inhalation challenge 0.25 to 10.0 mg/mL.
Data set [3] concerns SRCR (scavenger receptor cysteine-rich) domain. The following applies: proteins with calcium binding sites similar to host protease TMPRSS2.

Regarding albuterol sulfate, the EDTA-induced bronchoconstriction result in data set [1] is “significantly attenuated”.
Turning to `O=C(O)CN(CCN(CC(=O)O)CC(=O)O)CC(=O)O` [EDTA, ethylenediamine tetraacetic acid], the Rubella virus infection result with Rubella virus (in the "test tube") is on record as “prevented”. For the same molecule, the Rubella fusion entry in the data set with Rubella virus (in vitro, addition of the calcium chelator) is listed as “completely abrogated”. Further, the bronchoconstriction result in data set [2] is on record as “concentration-dependent bronchoconstriction”. In addition, the calcium-dependent binding result in data set [3] was “disrupted”.
